{
  "source": "the supplement of paper PMC10307832",
  "data": [
    {"compound": "COc1cccc2cc(-c3nc([C@H]4CC[C@H](C(=O)O)CC4)n4ncnc(N)c34)[nH]c12 [OSI-027]", "assay": "relative viability (nuclei count vs DMSO), 5 days (fraction); higher = more cells survive", "conditions": "0.5 µM; anchor plate", "method_in_brief": "(§1)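 A plate was accepted only when its control CV was below 25% and the cells had doubled at least once. Viability is defined from nuclear counts as treated wells divided by vehicle wells, with the median taken across plates. That median covers lung cancer cell lines grown in 1536-well plates, dosed by pinning at five √10-spaced library-drug concentrations, and counted in MetaXpress from 4× Hoechst images after 5 days.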", "values": [
      {"cell line": "NCI-H441", "relative viability": 0.636},
      {"cell line": "HCC-78", "relative viability": 0.385}
    ]},
    {"compound": "COc1cccc2cc(-c3nc([C@H]4CC[C@H](C(=O)O)CC4)n4ncnc(N)c34)[nH]c12 [OSI-027]", "assay": "relative viability (nuclei count vs DMSO), 5 days (fraction); higher = more cells survive", "conditions": "1 µM", "method_in_brief": "as §1", "values": [
      {"cell line": "NCI-H23", "relative viability": 0.54},
      {"cell line": "HCC-827", "relative viability": 0.956},
      {"cell line": "NCI-H2347", "relative viability": 0.516},
      {"cell line": "LXF-289", "relative viability": 0.881},
      {"cell line": "NCI-H1666", "relative viability": 0.666},
      {"cell line": "RERF-LC-KJ", "relative viability": 0.464},
      {"cell line": "NCI-H650", "relative viability": 0.403},
      {"cell line": "NCI-H322M", "relative viability": 0.527},
      {"cell line": "201T", "relative viability": 0.733},
      {"cell line": "SW 900", "relative viability": 0.47},
      {"cell line": "SK-MES-1", "relative viability": 0.35},
      {"cell line": "NCI-H441", "relative viability": 0.474},
      {"cell line": "HCC-78", "relative viability": 0.501}
    ]},
    {"compound": "CCCS(=O)(=O)Nc1ccc(F)c(C(=O)c2c[nH]c3ncc(-c4ccc(Cl)cc4)cc23)c1F [Vemurafenib]", "assay": "relative viability (nuclei count vs DMSO), 5 days (fraction); higher = more cells survive", "conditions": "0.03162 µM", "method_in_brief": "as §1", "values": [
      {"cell line": "NCI-H23", "relative viability": 0.918},
      {"cell line": "HCC-827", "relative viability": 1.05},
      {"cell line": "NCI-H2347", "relative viability": 0.939},
      {"cell line": "LXF-289", "relative viability": 0.967},
      {"cell line": "NCI-H1666", "relative viability": 0.946},
      {"cell line": "RERF-LC-KJ", "relative viability": 0.957},
      {"cell line": "NCI-H650", "relative viability": 0.882},
      {"cell line": "NCI-H322M", "relative viability": 0.883},
      {"cell line": "201T", "relative viability": 0.954},
      {"cell line": "SW 900", "relative viability": 0.69},
      {"cell line": "SK-MES-1", "relative viability": 0.969},
      {"cell line": "NCI-H441", "relative viability": 0.899},
      {"cell line": "HCC-78", "relative viability": 0.93}
    ]},
    {"compound": "CCCS(=O)(=O)Nc1ccc(F)c(C(=O)c2c[nH]c3ncc(-c4ccc(Cl)cc4)cc23)c1F [Vemurafenib]", "assay": "relative viability (nuclei count vs DMSO), 5 days (fraction); higher = more cells survive", "conditions": "0.1 µM", "method_in_brief": "as §1", "values": [
      {"cell line": "NCI-H23", "relative viability": 0.967},
      {"cell line": "NCI-H2347", "relative viability": 1.02},
      {"cell line": "LXF-289", "relative viability": 0.95},
      {"cell line": "NCI-H1666", "relative viability": 0.902},
      {"cell line": "RERF-LC-KJ", "relative viability": 0.984},
      {"cell line": "NCI-H650", "relative viability": 0.965},
      {"cell line": "201T", "relative viability": 0.951},
      {"cell line": "SW 900", "relative viability": 0.843},
      {"cell line": "SK-MES-1", "relative viability": 0.727},
      {"cell line": "NCI-H441", "relative viability": 0.963},
      {"cell line": "HCC-78", "relative viability": 0.838}
    ]},
    {"compound": "CCCS(=O)(=O)Nc1ccc(F)c(C(=O)c2c[nH]c3ncc(-c4ccc(Cl)cc4)cc23)c1F [Vemurafenib]", "assay": "relative viability (nuclei count vs DMSO), 5 days (fraction); higher = more cells survive", "conditions": "0.3162 µM", "method_in_brief": "as §1", "values": [
      {"cell line": "NCI-H23", "relative viability": 0.838},
      {"cell line": "HCC-827", "relative viability": 0.95},
      {"cell line": "NCI-H2347", "relative viability": 0.791},
      {"cell line": "LXF-289", "relative viability": 1},
      {"cell line": "NCI-H1666", "relative viability": 1.1},
      {"cell line": "RERF-LC-KJ", "relative viability": 0.942},
      {"cell line": "NCI-H650", "relative viability": 0.413},
      {"cell line": "NCI-H322M", "relative viability": 1.11},
      {"cell line": "201T", "relative viability": 0.971},
      {"cell line": "SW 900", "relative viability": 0.808},
      {"cell line": "SK-MES-1", "relative viability": 0.932},
      {"cell line": "NCI-H441", "relative viability": 0.787},
      {"cell line": "HCC-78", "relative viability": 1.05}
    ]},
    {"compound": "CCCS(=O)(=O)Nc1ccc(F)c(C(=O)c2c[nH]c3ncc(-c4ccc(Cl)cc4)cc23)c1F [Vemurafenib]", "assay": "relative viability (nuclei count vs DMSO), 5 days (fraction); higher = more cells survive", "conditions": "1 µM", "method_in_brief": "as §1", "values": [
      {"cell line": "NCI-H23", "relative viability": 0.871},
      {"cell line": "HCC-827", "relative viability": 1.07},
      {"cell line": "NCI-H2347", "relative viability": 0.924},
      {"cell line": "LXF-289", "relative viability": 1.06},
      {"cell line": "NCI-H1666", "relative viability": 0.926},
      {"cell line": "RERF-LC-KJ", "relative viability": 1.03},
      {"cell line": "NCI-H650", "relative viability": 0.628},
      {"cell line": "NCI-H322M", "relative viability": 0.906},
      {"cell line": "201T", "relative viability": 0.968},
      {"cell line": "SW 900", "relative viability": 0.756},
      {"cell line": "SK-MES-1", "relative viability": 0.973},
      {"cell line": "NCI-H441", "relative viability": 0.931},
      {"cell line": "HCC-78", "relative viability": 0.964}
    ]}
  ]
}
